From PMC3479139, “Diverse Small Molecule Inhibitors of Human Apurinic/Apyrimidinic Endonuclease APE1 Identified from a Screen of a Large Public Collection” (PLoS ONE, 2012)

Tests used:
E. coli Endo IV = biological target: T1, E. coli Endo IV (Escherichia coli, UniProt P0A6C1); assay: E. coli Endo IV profiling counterscreen; assay type: biochemical; conditions: read-out: EndoIV IC50;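 further: selectivity counterscreen of candidate APE1 inhibitors against the bacterial endonuclease Endo IV, run in the same assay format as the primary APE1 high-throughput screen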
T1 construct: made in house
Source text: In order to screen out nonselective compounds, such as non-specific DNA binders and inhibitors of related enzymes, we used a miniaturized ThO DNA displacement assay and a counterscreen against the bacterial endonuclease E. coli Endo IV, respectively, following the previously published protocols [21].
To probe the selectivity of the candidate APE1 inhibitors, we tested them against E. coli EndoIV [36], employing the same assay as used in the HTS.

APE1 [1] = biological target: T2, APE1 (Homo sapiens, UniProt P27695); assay: Gel-based APE1 incision assay with fluorescence (TAMRA) detection; assay type: biochemical
T2 construct: made in house
T2 sequence (P27695 whole entry): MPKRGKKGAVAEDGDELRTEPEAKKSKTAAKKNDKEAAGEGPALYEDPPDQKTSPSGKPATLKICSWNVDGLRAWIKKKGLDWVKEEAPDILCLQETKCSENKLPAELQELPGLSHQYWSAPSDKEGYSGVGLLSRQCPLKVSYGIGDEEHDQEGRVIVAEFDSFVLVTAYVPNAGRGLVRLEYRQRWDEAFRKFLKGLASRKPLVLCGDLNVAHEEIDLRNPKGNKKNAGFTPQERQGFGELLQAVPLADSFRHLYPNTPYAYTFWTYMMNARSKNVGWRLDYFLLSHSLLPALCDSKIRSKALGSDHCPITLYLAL
Procedure: To test the compounds’ inhibitory activity after the primary screen, two assays designed to monitor the cleavage of substrate to product through electrophoretic separation were utilized. The radiotracer incision assay, utilizing a ^32P-labeled substrate, was performed essentially as described [21], [31], [32]. Incision reactions utilizing ^32P-labeled substrate were carried out for 5 min at 37°C. After the addition of an equal volume of stop buffer (0.05% bromophenol blue and xylene cyanol, 20 mM EDTA, 95% formamide), the substrate and product were separated on a standard polyacrylamide denaturing gel and quantified by PhosphorImager analysis [32]. […] APE1 cleavage of the substrate results in a 18-mer TAMRA-labeled fragment which was separated by a non-denaturing polyacrylamide gel electrophoresis and quantitated in a Gel Doc XR imaging system, BioRad (Hercules, CA). The advantage of this assay is that it can be used in a relatively high throughput mode with the inhibitors tested at a range of concentrations (0.17 µM to 125 µM was used here). APE1 (0.15 nM) was added to a reaction mixture of 20 µL containing assay buffer (40 mM HEPES pH 7.5, 50 mM NaCl, 1 mM MgCl2 and 2 mM DTT), and labeled ds DNA substrate (final 75 nM). The mixture was incubated at RT for 15 min, and the reaction was stopped by the addition 20 µL of 2X dye stop solution (10% glycerol, 20 mM EDTA and bromophenol blue). Then 10 µL of the mixture was resolved on 20% polyacrylamide gel in 1X Tris-borate EDTA running buffer at 250 V for 40 min.
To eliminate false positive hits, all 595 confirmed molecules were tested for their ability to inhibit APE1 incision activity using biochemical assays that involve electrophoretic separation of the substrate and cleavage product.

APE1 [2] = biological target: T2, APE1; assay: Fluorogenic kinetic qHTS APE1 incision assay (primary screen and retest of cherrypicked samples); assay type: biochemical;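 further: purified APE1 cleaving a fluorophore/dark-quencher labelled 17-mer duplex DNA bearing a tetrahydrofuran AP site, fluorescence rise followed kinetically over the first 2 min, inhibition normalized to controls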
[3] = biological target: double-stranded 17-mer DNA fragment; assay: ThO (Thiazole Orange) DNA displacement assay; assay type: binding; conditions: read-out: ThO-DNA binding IC50;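 further: miniaturized displacement of the intercalating dye from unlabeled duplex DNA, used to flag nonspecific DNA binders, chiefly intercalators, groove binders may be missed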
APE1 [4] = biological target: T2, APE1; assay: Fluorescence polarization (FP) displacement assay of APE1 binding to AP-DNA probe; conditions: read-out: FP IC50;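 further: TAMRA 5′-labeled duplex DNA with THF abasic site (5 nM) and APE1 (20 nM), Mg2+-free buffer, 15 min at room temperature, inhibition seen as lowered polarization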
[5] = estimated IC50, fluorophore detection, entries 113-223, read-out: F-PAGE Assay IC50
[6] = initial quantitative high-throughput screen, read-out: APE1 qHTS IC50
[7] = retest of cherrypicked sample, read-out: APE1 Retest IC50
[8] = entries 113-223: fluorophore detection, estimated IC50, read-out: Gel-based electrophoretic separation assay with fluorophore detection, estimated IC50 (column headed Radiotracer Assay (%Activity))

SMILES | IC50 (E. coli Endo IV) [µM] | IC50 (APE1 [1]; [5]) [µM] | IC50 (APE1 [2]; [6]) [µM] | IC50 (APE1 [2]; [7]) [µM] | IC50 [3] [µM] | IC50 (APE1 [4]) [µM] | IC50 (APE1 [1]; [8]) [µM]
O=C(COC(=O)c1ccccc1)Nc1ncc([N+](=O)[O-])s1 [MLS002171184] | > 57 | 1.6 | 3.4 | 11.5 | 32.4 | > 57 | –
Nc1c(C(=O)OCC(=O)Nc2cccc([N+](=O)[O-])c2)[nH]c(=O)[nH]c1=O [MLS002171489] | > 57 | 7.9 | 8.4 | 16.2 | > 57 | > 57 | –
Cc1sc2ncnc(SCC(=O)Nc3ncccc3O)c2c1C [MLS002181609] | > 57 | – | 29.9 | 10.2 | > 57 | 20.4 | 14.1
C=CC1=C(C(=O)O)N2C(=O)[C@@H](NC(=O)/C(=N\OCC(=O)O)c3csc(N)n3)[C@H]2SC1 [MLS002222332] | > 57 | 2.8 | 11.9 | – | > 57 | > 57 | –
CCOC(=O)C1CCCN(C(=O)c2cc(-c3ccco3)nc3ccccc23)C1 (stereo not shown) [MLS002245402] | > 57 | 4 | 8.4 | 18.2 | 32.4 | > 57 | –
CCOc1ccc(NC(=O)CN(C)C(=O)C2COc3ccccc3O2)cc1OCC (stereo not shown) [MLS002248300] | > 57 | – | 21.2 | 32.4 | > 57 | > 57 | 20
COc1ccc(S(=O)(=O)N2CCN(C(=O)c3cc4c(s3)CCC4)CC2)cc1 [MLS002248682] | > 57 | 2 | 2.7 | 8.1 | > 57 | > 57 | –
NC(=O)c1ccc(NC(=O)COC(=O)c2cc3c(s2)CCC3)cc1 [MLS002251079] | > 57 | 3.5 | 3 | 12.9 | > 57 | 18.2 | –
CC(=O)c1cccc(OCC(=O)N(C)CC(=O)NCc2ccco2)c1 [MLS002251323] | > 57 | 4 | 9.5 | 9.1 | > 57 | > 57 | –
COc1ccc(S(=O)(=O)NCCC(=O)NC2CCCCC2C)cc1[N+](=O)[O-] (stereo not shown) [MLS002251710] | > 57 | – | 26.7 | 16.2 | > 57 | 20.4 | 11.2
CC1(C)CC2CC(C)(CN2C(=O)COC(=O)c2ccc(O)cc2O)C1 (stereo not shown) [MLS002251953] | > 57 | – | 10.6 | 14.5 | > 57 | > 57 | 15.8
Cn1cnnc1SCC(=O)Nc1ncc([N+](=O)[O-])s1 [MLS002252055] | > 57 | 5 | 8.4 | 6.5 | 40.8 | > 57 | –
O=C(C[C@@H]1C/C=C\C[C@H](Cc2ccc(F)cc2)C(=O)OC[C@@H](Cc2c[nH]c3ccccc23)NC1=O)NCCO [MLS002320105] | > 57 | 5.6 | 11.9 | – | > 57 | > 57 | –
CC(C)(C)OC(=O)C[C@@H]1C/C=C\C[C@H](CC(=O)NCCO)C(=O)N2CCC[C@H]2COC1=O [MLS002320191] | > 57 | 7.9 | 6.7 | 20.4 | > 57 | > 57 | –
CC(C)(C)OC(=O)C[C@@H]1C/C=C\C[C@@H](CC(=O)NCCO)C(=O)N[C@H](Cc2c[nH]c3ccccc23)COC1=O [MLS002320206] | > 57 | – | 15 | 16.2 | > 57 | > 57 | 20
O=C(C[C@@H]1C/C=C\C[C@H](NC(=O)OCC2c3ccccc3-c3ccccc32)C(=O)OC[C@@H]2CCCN2C1=O)NCCO [MLS002320455] | > 57 | – | 9.5 | 10.2 | > 57 | > 57 | 22.4
